Legend:
Assay type in all cases: in vivo
[1] = test system: johnsongrass (Sorghum halepense, SORHA); assay: Pre-emerge test, greenhouse herbicide activity screening; settings: rating scale 0-100, 14 days after application
Outline: (§1)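 Compounds in acetone were track-sprayed at 15–1000 g ai/ha: pre-emergence onto soil sown the previous day, then top-watered to incorporate and later bottom-watered; post-emergence onto 2–3 leaf plants with 0.25% v/v surfactant, bottom-watered only. Ratings on a 0–100 phytotoxicity scale were taken at day 14.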

[2] = test system: velvetleaf (Abutilon theophrasti, ABUTH); assay: as above; settings: rating scale 0-100, 14 days after application
Outline: as §1

[3] = test system: lambsquarters (Chenopodium album, CHEAL); assay: as above; settings: rating scale 0-100, 14 days after application
Outline: as §1

[4] = test system: ivyleaf morningglory (Ipomoea hederacea, IPOHE); assay: as above; settings: rating scale 0-100, 14 days after application
Outline: as §1

[5] = test system: barnyardgrass (Echinochloa crus-galli, ECHCG); assay: as above; settings: rating scale 0-100, 14 days after application
Outline: as §1

[6] = test system: large crabgrass (Digitaria sanguinalis, DIGSA); assay: as above; settings: rating scale 0-100, 14 days after application
Outline: as §1

[7] = test system: sicklepod (Cassia obtusifolia, CASOB); assay: as above; settings: rating scale 0-100, 14 days after application
Outline: as §1

[8] = test system: green foxtail (Setaria viridis, SETVI); assay: as above; settings: rating scale 0-100, 14 days after application
Outline: as §1

[9] = test system: field corn (Zea mays L., var. Dekalb 535, CORN); assay: Post-emerge test, crop safety; settings: post-emerge, crop damage rating 0-100 at 14 days after application
Outline: (§2)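 Rating: 0–100 visual injury, 14 DAA. Application: acetone, 187 l/ha, 15–1000 g ai/ha, flat-fan track sprayer with nozzle 40–45 cm above soil or canopy. Post-emerge runs used 0.25% v/v surfactant on 2–3 leaf plants.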

[10] = test system: upland rice (Oryza sp., var. Tebonnet, RICE); assay: Post-emerge test, crop safety; settings: post-emerge, crop damage rating 0-100 at 14 days after application
Outline: as §2

[11] = test system: field corn (Zea mays L., var. Dekalb 535, CORN); assay: Pre-emerge test, crop safety; settings: rating scale 0-100, 14 days after application
Outline: (§3)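 Plants grown in 10 cm pots of sandy loam mix received acetone-dissolved compounds through a moving flat-fan nozzle. Doses ranged from 15 to 1000 g ai/ha. Pre-emerge pots were seeded one day earlier, post-emerge pots 8–21 days earlier. Fourteen days on, each pot was graded 0–100 for damage.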

[12] = test system: upland rice (Oryza sp., var. Tebonnet, RICE); assay: Pre-emerge test, crop safety; settings: rating scale 0-100, 14 days after application
Outline: as §3

[13] = test system: redroot pigweed (Amaranthus retroflexus, AMARE); assay: Pre-emerge test, greenhouse herbicide activity screening; settings: rating scale 0-100, 14 days after application
Outline: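 Herbicidal damage is scored 0 (none) to 100 (complete plant death) two weeks after a simulated field spray. Rates span 15–1000 g ai/ha, delivered in acetone at 187 l/ha. For post-emergence treatments, plants have 2–3 leaves and the spray carries 0.25% v/v non-ionic surfactant.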

[14] = test system: johnsongrass (Sorghum halepense, SORHA); assay: Post-emerge test, greenhouse herbicide activity screening; settings: post-emerge, phytotoxicity rating 0-100 at 14 days after application
Outline: (§4)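 Compounds in acetone were track-sprayed at 15-1000 g ai/ha (187 l/ha) on sandy loam pots: pre-emerge one day after seeding, post-emerge at 2-3 leaf stage with 0.25% v/v non-ionic surfactant. Phytotoxicity was rated 14 days later on a 0 (no damage) to 100 (complete death) scale.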

[15] = test system: velvetleaf (Abutilon theophrasti, ABUTH); assay: as above; settings: post-emerge, phytotoxicity rating 0-100 at 14 days after application
Outline: as §4

[16] = test system: lambsquarters (Chenopodium album, CHEAL); assay: as above; settings: post-emerge, phytotoxicity rating 0-100 at 14 days after application
Outline: as §4

[17] = test system: ivyleaf morningglory (Ipomoea hederacea, IPOHE); assay: as above; settings: post-emerge, phytotoxicity rating 0-100 at 14 days after application
Outline: as §4

[18] = test system: barnyardgrass (Echinochloa crus-galli, ECHCG); assay: as above; settings: post-emerge, phytotoxicity rating 0-100 at 14 days after application
Outline: as §4

[19] = test system: large crabgrass (Digitaria sanguinalis, DIGSA); assay: as above; settings: post-emerge, phytotoxicity rating 0-100 at 14 days after application
Outline: as §4

[20] = test system: sicklepod (Cassia obtusifolia, CASOB); assay: as above; settings: post-emerge, phytotoxicity rating 0-100 at 14 days after application
Outline: as §4

[21] = test system: redroot pigweed (Amaranthus retroflexus, AMARE); assay: as above; settings: post-emerge, phytotoxicity rating 0-100 at 14 days after application
Outline: as §4

[22] = test system: green foxtail (Setaria viridis, SETVI); assay: as above; settings: post-emerge, phytotoxicity rating 0-100 at 14 days after application
Outline: as §4

Nc1c(O)c(Cl)cc(F)c1N1C(=O)C2CCCCN2C1=S (single isomer, unassigned) [12-3]
Pre-emerge herbicidal activity, phytotoxicity rating SORHA ([1]; 63 g ai/ha): 0 | Pre-emerge herbicidal activity, phytotoxicity rating SORHA ([1]; 250 g ai/ha): 0 | Pre-emerge herbicidal activity, phytotoxicity rating ABUTH ([2]; 63 g ai/ha): 100 | Pre-emerge herbicidal activity, phytotoxicity rating ABUTH ([2]; 250 g ai/ha): 100 | Pre-emerge herbicidal activity, phytotoxicity rating CHEAL ([3]; 63 g ai/ha): 100 | Pre-emerge herbicidal activity, phytotoxicity rating CHEAL ([3]; 250 g ai/ha): 100 | Pre-emerge herbicidal activity, phytotoxicity rating IPOHE ([4]; 63 g ai/ha): 0 | Pre-emerge herbicidal activity, phytotoxicity rating IPOHE ([4]; 250 g ai/ha): 90 | Pre-emerge herbicidal activity, phytotoxicity rating ECHCG ([5]; 63 g ai/ha): 0 | Pre-emerge herbicidal activity, phytotoxicity rating ECHCG ([5]; 250 g ai/ha): 0 | Pre-emerge herbicidal activity, phytotoxicity rating DIGSA ([6]; 63 g ai/ha): 0 | Pre-emerge herbicidal activity, phytotoxicity rating DIGSA ([6]; 250 g ai/ha): 30 | Pre-emerge herbicidal activity, phytotoxicity rating CASOB ([7]; 63 g ai/ha): 30 | Pre-emerge herbicidal activity, phytotoxicity rating CASOB ([7]; 250 g ai/ha): 70 | Pre-emerge herbicidal activity, phytotoxicity rating SETVI ([8]; 63 g ai/ha): 0 | Pre-emerge herbicidal activity, phytotoxicity rating SETVI ([8]; 250 g ai/ha): 30 | Post-emerge Herbicidal Activity CORN ([9]; 63 g ai/ha): 5 | Post-emerge Herbicidal Activity CORN ([9]; 250 g ai/ha): 10 | Post-emerge Herbicidal Activity RICE ([10]; 63 g ai/ha): 0 | Post-emerge Herbicidal Activity RICE ([10]; 250 g ai/ha): 5 | Pre-emerge phytotoxicity rating, crop damage CORN ([11]; 63 g ai/ha): 0 | Pre-emerge phytotoxicity rating, crop damage CORN ([11]; 250 g ai/ha): 0 | Pre-emerge phytotoxicity rating, crop damage RICE ([12]; 63 g ai/ha): 10 | Pre-emerge phytotoxicity rating, crop damage RICE ([12]; 250 g ai/ha): 20 | Pre-emerge herbicidal activity, phytotoxicity rating AMARE ([13]; 63 g ai/ha): 95 | Pre-emerge herbicidal activity, phytotoxicity rating AMARE ([13]; 250 g ai/ha): 100 | Post-emerge Herbicidal Activity SORHA ([14]; 63 g ai/ha): 0 | Post-emerge Herbicidal Activity SORHA ([14]; 250 g ai/ha): 50 | Post-emerge Herbicidal Activity ABUTH ([15]; 63 g ai/ha): 90 | Post-emerge Herbicidal Activity ABUTH ([15]; 250 g ai/ha): 90 | Post-emerge Herbicidal Activity CHEAL ([16]; 63 g ai/ha): 90 | Post-emerge Herbicidal Activity CHEAL ([16]; 250 g ai/ha): 100 | Post-emerge Herbicidal Activity IPOHE ([17]; 63 g ai/ha): 50 | Post-emerge Herbicidal Activity IPOHE ([17]; 250 g ai/ha): 90 | Post-emerge Herbicidal Activity ECHCG ([18]; 63 g ai/ha): 0 | Post-emerge Herbicidal Activity ECHCG ([18]; 250 g ai/ha): 10 | Post-emerge Herbicidal Activity DIGSA ([19]; 63 g ai/ha): 0 | Post-emerge Herbicidal Activity DIGSA ([19]; 250 g ai/ha): 0 | Post-emerge Herbicidal Activity CASOB ([20]; 63 g ai/ha): 20 | Post-emerge Herbicidal Activity CASOB ([20]; 250 g ai/ha): 80 | Post-emerge Herbicidal Activity AMARE ([21]; 63 g ai/ha): 95 | Post-emerge Herbicidal Activity AMARE ([21]; 250 g ai/ha): 99 | Post-emerge Herbicidal Activity SETVI ([22]; 63 g ai/ha): 0 | Post-emerge Herbicidal Activity SETVI ([22]; 250 g ai/ha): 0

Source: patent US6355799B1, “Substituted benzene compounds, process for their preparation, and herbicidal and defoliant compositions containing them” (ISK Americas Incorporated, priority 1997, dated 2002)
